Reference: PMC5500990 (European Journal of Medicinal Chemistry, 2017)
Where a SMILES comes first, the peptide text is derived from it. [ ]: non-standard residue; d: D form. dNMeF = CN[C@H](Cc1ccccc1)C(=O)O

Key:
H69 and DMS79 cells = system: H69 and DMS79 cells; design: method as in PMID 30108771; conditions: range over both cell lines; read-out: IC50 values in the range against H69 and DMS79; cited from earlier work
DMS79 cells [1] = test: Annexin V conjugate / SYTOX Blue flow cytometric analysis of apoptosis; format: cell-based, human; conditions: 24 h, n = 3
Experimental: The novel potent N^ind-butylated peptide, 16, and its unmodified version 1 [26] were incubated for 24 h with DMS79 cells and double stained using Annexin V Fluor® 555 (AnnV) conjugate and SYTOX® Blue (SyB) dead cell stain [29], [32]. The former stain binds to phosphatidyl serine (PS) residues that become exposed at the outer surface of the plasma membrane of cells undergoing apoptosis. DMS79 cell line was selected as a variant cell line model more resistant to chemotherapy since it is established from a SCLC patient treated with three different chemotherapeutics and radiation therapy. Peptide 16 was the most cytotoxic against this cell line (Table 1).
Quantitative assessment of apoptosis was evaluated at low (2 μM) and high (6 μM) peptide concentrations using flow cytometry. A bar-chart (Fig. 6) presents the levels of cells classified into four stages; live cells (AnnV-/SyB-), early apoptotic cells (AnnV+/SyB-), late apoptotic cells (AnnV+/SyB+) and necrotic cells (AnnV-/SyB+). Dot blots are presented in the SD (Fig. S37). […] In contrast, the singly butylated peptide (16) caused highly significant (P < 0.0005) apoptosis in a concentration dependent manner. Even at a low concentration of peptide (2 μM), a small increase (P < 0.05) of early apoptotic cells was observed relative to the control sample.
The experiment was performed according to manufacturer's instructions. Briefly, DMS79 cells were seeded in 12-well plates at a seeding density of 1 × 10^5 cells/well/1980 μl complete medium. Negative control (untreated), peptides at final well concentrations of 2 and 6 μM were prepared and incubated as the above conditions stated in Section 5.1 for 24 h (total volume of wells was 2 ml). The contents of the wells were then carefully transferred into Eppendorf® tubes and centrifuged for 5 min at 500 rpm and the media discarded. Cells pellets were washed with cold PBS. Cells were gently re-suspended in 100 μl annexin-binding buffer followed by the addition of 5 μl of the Annexin V conjugate (Alexa Fluor® 555) and 0.5 μl of dead cell stain (SYTOX® Blue). Tubes were left for 10 min at RT, then 400 μl of annexin-binding buffer were added and samples were analysed on a flow cytometer (BD Biosciences - LSR Fortessa; Diva 8.0.1 software; Annexin V conjugate was excited with 561 nm laser and fluorescence measured using a 586/15 nm bandpass filter; dead cell stain was excited with 405 nm laser and fluorescence measured using 450/50 nm bandpass filter). Assays were repeated three independent times.

DMS79 cells [2] = system: DMS79 cells; design: method as in PMID 30108771; conditions: treatment for 48 h; obtained previously; read-out: IC50 ± SE, DMS79 Cells; cited from earlier work
H69 cells = system: H69 cells; design: method as in PMID 30108771; conditions: treatment for 48 h; obtained previously; read-out: IC50 ± SE, H69 Cells; cited from earlier work

| Compound | IC50 (H69 and DMS79 cells) | % events, early apoptotic cells (AnnV+/SyB-) (DMS79 cells [1]; DMS79, 2 μM) | % events, late apoptotic cells (AnnV+/SyB+) (DMS79 cells [1]; DMS79, 2 μM) | % events, live cells (AnnV-/SyB-) (DMS79 cells [1]; DMS79, 2 μM) | % events, necrotic cells (AnnV-/SyB+) (DMS79 cells [1]; DMS79, 2 μM) | % events, early apoptotic cells (AnnV+/SyB-) (DMS79 cells [1]; DMS79, 6 μM) | % events, late apoptotic cells (AnnV+/SyB+) (DMS79 cells [1]; DMS79, 6 μM) | % events, live cells (AnnV-/SyB-) (DMS79 cells [1]; DMS79, 6 μM) | % events, necrotic cells (AnnV-/SyB+) (DMS79 cells [1]; DMS79, 6 μM) | IC50 (DMS79 cells [2]) | IC50 (H69 cells) |
| --- | --- | --- | --- | --- | --- | --- | --- | --- | --- | --- | --- |
| CN[C@H](Cc1ccccc1)C(=O)N[C@H](Cc1c[nH]c2ccccc12)C(=O)N[C@@H](Cc1ccccc1)C(=O)N[C@H](Cc1c[nH]c2ccccc12)C(=O)N[C@@H](CC(C)C)C(N)=O [Peptide 1, DMePhe-DTrp-Phe-DTrp-Leu-NH2] (H-[dNMeF][dW]F[dW]L-NH2; N-terminus assumed) | 23 to 31 µM | 6.2% | 23.9% | 67.6% | 2.3% | 6.6% | 22.9% | 68.3% | 2.2% |  |  |
| [Arg^6,D-Trp^7,9,MePhe^8]SP (6–11) [SPG] |  |  |  |  |  |  |  |  |  | > 30 µM | > 30 µM |
